Literature values, collected in patent US20200206299A1, “INHIBITORS OF BETA-ARRESTIN-NEUROKININ 1 RECEPTOR INTERACTIONS FOR THE TREATMENT OF PAIN” (priority 2016, published 2020).

Tested on: capsaicin-evoked hyperalgesia
Conditions: intrathecal MEK inhibitor; Ji et al. 2002 is cited

In the case of N#CC(=C(/N)Sc1ccccc1N)/C(C#N)=C(\N)Sc1ccccc1N [U0126], the capsaicin-evoked hyperalgesia is given as “inhibited”.
